This test deals with T1, PCSK9 (Homo sapiens, UniProt Q8NBP7).
T1 construct: endogenous in cells; host or cells: HepG2 (ATCC HB-8065)
The test can be described thus: ELISA of secreted (extracellular, medium) PCSK9 in HepG2 cells. The class given is cell-based. The settings on record: for Activity at 1 μM (% of remaining PCSK9): 1 μM compound; for Activity at 1 μM (% of remaining PCSK9) / Activity at 10 μM (% of remaining PCSK9): HepG2 cells, DMSO = 100%; for Activity at 10 μM (% of remaining PCSK9): 10 μM compound; for IC50: dose-response curves, extracellular PCSK9, cultured HepG2 cells (FIG. 4). The method, then:
The human hepatoma cell line, HepG2, was cultured and maintained in low glucose Dulbecco's modified Eagle's medium (DMEM) supplemented with 10% fetal bovine serum (FBS) and 1% penicillin, streptomycin solution. (ATCC HB-8065, American Type Culture Collection, Manassas, Va.) The medium was further supplemented with 1% each of nonessential amino acids (NEAA), sodium pyruvate and L-glutamine.
Freshly cultured HepG2 cells were harvested from vacuum gas plasma-treated T75 cell culture flasks and plated onto vacuum gas plasma-treated clear 12 or 96 well plates (Fisher Scientific, Waltham, Mass. catalog nos. 353072 and 353043, respectively) at 70% confluent in 1000 μl/well or 200 μl/well of growth medium respectively. Cell plates were incubated overnight at 37° C. and 5% CO2 prior to compound treatment. For screening experiments, compounds at an initial concentration of 20 mM in 100% DMSO were diluted to different concentrations in growth medium.
For the generation of dose-response curves, compounds at an initial concentration of 20 mM in 100% DMSO were diluted to 30 μM in growth medium. The 30 μM solutions were then serially diluted 10-fold to achieve final concentration of 30 μM, 3 μM, 0.3 μM, 0.03 μM, and 0.003 μM in assay medium. Growth medium was aspirated from the plated cells and medium containing compound was added to the appropriate well. Cells were allowed to incubate for 24 h or 48 h at 37° C. and 5% CO2. Medium was collected from cells and centrifuged at 14,000 rpm for five min. The upper 50% of spun medium was collected and frozen for later analysis. The remaining cells were washed twice with 1000 μl/well or 200 μl/well cold phosphate buffered saline (PBS) at pH 7.4 and placed on ice. Cells were treated with 100 μl/well or 60 μl/well of lysis buffer comprised of 50 mM Tris, pH 8; 1% NP-40; 150 mM NaCl; 1 mM EDTA (purchased from Cell Signaling Technology, Inc., Danvers, Mass., catalog no. 9803) containing 1 mM phenylmethane sulfonyl fluoride (PMSF) and Roche protease inhibitor cocktail (available from Sigma-Aldrich, St. Louis, Mo.). Cells were allowed to incubate in lysis buffer on ice for 30 min. Cells were then collected and frozen overnight. Cells were centrifuged the next day at 14,000 rpm for 15 min. The supernatant was collected and analyzed for total protein or PCSK9 concentration.
Inhibition of secreted PCSK9 was measured in human hepatocellular carcinoma (HepG2) cells using a PCSK9 Quantikine®-brand ELISA kit purchased from R&D Systems, a wholly owned subsidiary of Bio-Techne Corporation, Minneapolis, Minn. (“Human Proprotein Convertase 9/PCSK9 Quantikine® ELISA Kit,” catalog #DPC900). The protocol provided in the kit was followed. Briefly, PCSK9 standards were prepared according to the instructions provided with the kit at final concentrations of 40 ng/mL, 20 ng/mL, 10 ng/mL, 5 ng/mL, 2.5 ng/mL, 1.25 ng/mL, 0.625 ng/mL and 0 ng/mL. The ELISA was conducted with the provided capture antibody-coated 96-well plate. Assay diluent was added to all relevant wells at a volume of 100 μL. 50 μL of sample (medium or cell lysate) or PCSK9 standard (in duplicate) was then added to the appropriate well. The plate was allowed to incubate for 2 h at room temperature. All wells were aspirated and washed four times with 300 μl of wash buffer. After washing, 200 μL of anti-PCSK9-HRP conjugate was added to all wells and the plate was allowed to incubate at room temperature for 2 h. After incubation all wells were aspirated and washed again four times with 300 μL of washing buffer.
After washing was completed, 200 μL of freshly prepared colorimetric reagent was added to all wells and the plate was incubated at room temperature in the dark for 30 min. After this final incubation a stop solution of 1N sulfuric acid was added to all wells, at which point absorbance was measured using a Tecan Infinite M1000 microplate reader at a wavelength of 450 nm (background absorbance was corrected by subtracting the absorbance measured at 540 nm). […]

Each structure is given as a SMILES string. Several values for one entry are separate records, joined by “and”; a condition that tells them apart may be missing. Equal entries are not always repeated.

T1 sequence (Q8NBP7 153-692): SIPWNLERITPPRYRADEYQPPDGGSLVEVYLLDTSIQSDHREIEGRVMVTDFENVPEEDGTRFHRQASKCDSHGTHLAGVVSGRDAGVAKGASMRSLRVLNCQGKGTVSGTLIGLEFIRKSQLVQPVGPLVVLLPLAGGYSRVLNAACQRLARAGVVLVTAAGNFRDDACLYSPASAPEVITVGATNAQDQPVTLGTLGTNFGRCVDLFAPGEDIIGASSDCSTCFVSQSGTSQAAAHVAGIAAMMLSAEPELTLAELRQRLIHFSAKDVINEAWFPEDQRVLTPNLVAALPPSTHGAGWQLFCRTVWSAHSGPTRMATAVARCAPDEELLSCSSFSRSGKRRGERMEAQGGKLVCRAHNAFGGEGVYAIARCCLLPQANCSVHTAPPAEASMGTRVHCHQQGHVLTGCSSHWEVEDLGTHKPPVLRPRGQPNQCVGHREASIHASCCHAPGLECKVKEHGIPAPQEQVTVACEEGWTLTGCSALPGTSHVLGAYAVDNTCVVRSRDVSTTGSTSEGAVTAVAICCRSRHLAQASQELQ

With `Fc1ccc2nc(Cc3c[nH]c4c(F)cccc34)n(Cc3ccccc3)c2c1` [HX178], the “Activity at 1 μM (% of remaining PCSK9)” value turned out to be 75% and the “Activity at 10 μM (% of remaining PCSK9)” value was found to be 31%.

For the compound `COc1ccc2cc3[n+](cc2c1OC)CCc1cc2c(cc1-3)OCO2` [BBR, berberine, reference compound], the “Activity at 1 μM (% of remaining PCSK9)” value was 88% and 69%; the “Activity at 10 μM (% of remaining PCSK9)” value is 54% and 51%.

For `Fc1ccc2nc(Cc3c[nH]c4c(F)cccc34)n(Cc3cccnc3)c2c1` [HX182], the “Activity at 1 μM (% of remaining PCSK9)” value is listed as 86% and the “Activity at 10 μM (% of remaining PCSK9)” value is on record as 89%.

Turning to `O=C(c1cc2cc(F)ccc2[nH]1)c1c[nH]c2ccccc12` [HX259], the “Activity at 1 μM (% of remaining PCSK9)” value was determined as 28% and the “Activity at 10 μM (% of remaining PCSK9)” value was 13%.

As to `O=C(c1nc2ccccc2[nH]1)c1c[nH]c2ccccc12` [HX262], the “Activity at 1 μM (% of remaining PCSK9)” value was 30% and the “Activity at 10 μM (% of remaining PCSK9)” value came to 20%.

For the compound `O=C(c1cc2ccccc2[nH]1)c1c[nH]c2ccccc12` [HX257], the “Activity at 1 μM (% of remaining PCSK9)” value was found to be 25% and the “Activity at 10 μM (% of remaining PCSK9)” value came to 13%.

Turning to `O=C(c1nc2ccc(F)cc2[nH]1)c1c[nH]c2c(F)cccc12` [HX235], the “Activity at 1 μM (% of remaining PCSK9)” value is listed as 28%; the “Activity at 10 μM (% of remaining PCSK9)” value was determined as 26%; the midpoint of inhibition, the IC50, lay at 0.5 nM.

`O=C(c1cc2cc(F)ccc2[nH]1)c1c[nH]c2c(F)cccc12` [HX240]: the “Activity at 1 μM (% of remaining PCSK9)” value was 25%, the “Activity at 10 μM (% of remaining PCSK9)” value was 15% and the IC50 (commonly the midpoint of a concentration-inhibition curve) stood at 13 nM.

With `Fc1ccc2nc(Cc3c[nH]c4c(F)cccc34)n(CCc3ccccc3)c2c1` [HX179], the “Activity at 1 μM (% of remaining PCSK9)” value amounted to 62% and the “Activity at 10 μM (% of remaining PCSK9)” value is 48%.

As to `Cn1c(Cc2c[nH]c3c(F)cccc23)nc2ccc(F)cc21` [HX184], the “Activity at 1 μM (% of remaining PCSK9)” value is 34% and the “Activity at 10 μM (% of remaining PCSK9)” value was 10%.

In the case of `Cn1c(C(=O)c2c[nH]c3c(F)cccc23)nc2ccc(F)cc21` [HX261], the “Activity at 1 μM (% of remaining PCSK9)” value is on record as 21% and the “Activity at 10 μM (% of remaining PCSK9)” value is 20%.

As to `CC(C)(C)Cn1c(Cc2c[nH]c3c(F)cccc23)nc2ccc(F)cc21` [HX186], the “Activity at 1 μM (% of remaining PCSK9)” value was 84% and the “Activity at 10 μM (% of remaining PCSK9)” value was found to be 73%.

Consider `O=C(c1nc2ccccc2[nH]1)c1c[nH]c2c(F)cccc12` [MF025], for which the “Activity at 1 μM (% of remaining PCSK9)” value worked out at 27% and the “Activity at 10 μM (% of remaining PCSK9)” value stood at 21%.

As to `Fc1ccc2[nH]c(Cc3c[nH]c4c(F)cccc34)cc2c1` [compound 9577], the “Activity at 1 μM (% of remaining PCSK9)” value is 59% and 50%; the “Activity at 10 μM (% of remaining PCSK9)” value was 17% and 13%; the midpoint of inhibition, the IC50, lay at 44 nM.

As for `[2H]C([2H])(c1nc2cc(F)ccc2[nH]1)c1c[nH]c2c(F)cccc12` [HX212], the “Activity at 1 μM (% of remaining PCSK9)” value came out at 45% and the “Activity at 10 μM (% of remaining PCSK9)” value is 25%.

As for `CC(C)Cn1c(Cc2c[nH]c3c(F)cccc23)nc2ccc(F)cc21` [HX185], the “Activity at 1 μM (% of remaining PCSK9)” value was 65% and the “Activity at 10 μM (% of remaining PCSK9)” value is reported as 42%.

Consider `Fc1ccc2[nH]c(Cc3c[nH]c4c(F)cccc34)nc2c1` [HX81], for which the “Activity at 1 μM (% of remaining PCSK9)” value is 46% and 40%.

For the compound `O=C(c1cc2ccccc2[nH]1)c1c[nH]c2c(F)cccc12` [HX258], the “Activity at 1 μM (% of remaining PCSK9)” value amounted to 20% and the “Activity at 10 μM (% of remaining PCSK9)” value is recorded as 14%.

Consider `Fc1ccc2nc(Cc3c[nH]c4c(F)cccc34)n(Cc3ccncc3)c2c1` [HX181], for which the “Activity at 1 μM (% of remaining PCSK9)” value came to 60% and the “Activity at 10 μM (% of remaining PCSK9)” value is on record as 33%.

Turning to `OCCn1c(Cc2c[nH]c3c(F)cccc23)nc2ccc(F)cc21` [HX183], the “Activity at 1 μM (% of remaining PCSK9)” value came out at 70% and the “Activity at 10 μM (% of remaining PCSK9)” value is given as 27%.

For the origin of these results see patent US11427569B2, “Benzoimidazole indolyl methanes and methods of using them to inhibit PCKS9 and PCKS9-mediated ailments” (Wisconsin Alumni Research Foundation, priority 2019, dated 2022).
